In US10765114B2, “4-amino-6-(pyridyl and 2-substitutedphenyl)-picolinates and 6-amino-2-(pyridyl and 2-substitutedphenyl)-pyrimidine-4-carboxylates and their use as herbicides” (Dow AgroSciences LLC, priority 2013, dated 2020):
Read-outs that look alike come from different tables or passages of the source.

Experiments:
[1] = system: Key Broadleaf Weed and Crop Species; test: Post-Emergent Test II (Table 5); format: in vivo; settings: post-emergence, 336 h; for pest or weed control at 70 g/ha: application rate 70 (kg ai/ha; footnote: g ai/ha); for pest or weed control at 140 g/ha: application rate 140 (kg ai/ha; footnote: g ai/ha)
Method in brief: (§1)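 Visual injury ratings (0 = no injury, 100 = complete kill) were taken 14 days after treatment relative to untreated plants. Seedlings at the first or second true leaf stage received an overhead spray at 187 L/ha, and solvent-blank sprayed plants served as controls.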

[2] = system: Key Grass and Sedge Weeds as well as Grass Crops; test: Post-Emergent Test II (Table 6); format: in vivo; settings: post-emergence, 336 h, 14 days after application; for pest or weed control at 70 g/ha: 70 g ai/ha; for pest or weed control at 140 g/ha: 140 g ai/ha
Method in brief: as §1

[3] = Abutilon theophrasti, ABUTH: velvetleaf (Abutilon theophrasti), read-out: Visual Growth Reduction (%) 14 Days After Application ABUTH
[4] = Amaranthus retroflexus, AMARE: redroot pigweed (Amaranthus retroflexus), read-out: Visual Growth Reduction (%) 14 Days After Application AMARE
[5] = Brassica napus, BRSSS: oilseed rape, canola (Brassica napus), read-out: Visual Growth Reduction (%) 14 Days After Application BRSSS
[6] = Chenopodium album, CHEAL: lambsquarters (Chenopodium album), read-out: Visual Growth Reduction (%) 14 Days After Application CHEAL
[7] = Euphorbia heterophylla, EPHHL: wild poinsettia (Euphorbia heterophylla), read-out: Visual Growth Reduction (%) 14 Days After Application EPHHL
[8] = Helianthus annuus, HELAN: sunflower (Helianthus annuus), read-out: Visual Growth Reduction (%) 14 Days After Application HELAN
[9] = Viola tricolor, VIOTR: wild pansy (Viola tricolor), read-out: Visual Growth Reduction (%) 14 Days After Application VIOTR
[10] = CYPSS, read-out: Visual Growth Reduction (%) 14 Days After Application CYPSS
[11] = DIGSA: crabgrass (Digitaria sanguinalis), read-out: Visual Growth Reduction (%) 14 Days After Application DIGSA
[12] = ECHSS, read-out: Visual Growth Reduction (%) 14 Days After Application ECHSS
[13] = ORYSS (crop), read-out: Visual Growth Reduction (%) 14 Days After Application ORYSS
[14] = SETFA: giant foxtail (Setaria faberi), read-out: Visual Growth Reduction (%) 14 Days After Application SETFA
[15] = SORVU: grain sorghum (Sorghum vulgare), read-out: Visual Growth Reduction (%) 14 Days After Application SORVU
[16] = TRZSS (crop), read-out: Visual Growth Reduction (%) 14 Days After Application TRZSS
[17] = ZEAMX: maize, corn (Zea mays), read-out: Visual Growth Reduction (%) 14 Days After Application ZEAMX

Row | SMILES | pest or weed control at 70 g/ha [1, 3] [%] | pest or weed control at 140 g/ha [1, 3] [%] | pest or weed control at 70 g/ha [1, 4] [%] | pest or weed control at 140 g/ha [1, 4] [%] | pest or weed control at 70 g/ha [1, 5] [%] | pest or weed control at 140 g/ha [1, 5] [%] | pest or weed control at 70 g/ha [1, 6] [%] | pest or weed control at 140 g/ha [1, 6] [%] | pest or weed control at 70 g/ha [1, 7] [%] | pest or weed control at 140 g/ha [1, 7] [%] | pest or weed control at 70 g/ha [1, 8] [%] | pest or weed control at 140 g/ha [1, 8] [%] | pest or weed control at 70 g/ha [1, 9] [%] | pest or weed control at 140 g/ha [1, 9] [%] | pest or weed control at 70 g/ha [2, 10] [%] | pest or weed control at 140 g/ha [2, 10] [%] | pest or weed control at 70 g/ha [2, 11] [%] | pest or weed control at 140 g/ha [2, 11] [%] | pest or weed control at 70 g/ha [2, 12] [%] | pest or weed control at 140 g/ha [2, 12] [%] | further results
1 | COC(=O)c1nc(-c2ccc(Cl)c(F)c2OC)cc(N)c1Cl [Compound 20] | 95 to 100 | 95 to 100 | 95 to 100 | 95 to 100 | 95 to 100 | 95 to 100 | 95 to 100 | 95 to 100 | 0 to 29 | 0 to 29 | 85 to 94 | 95 to 100 | 95 to 100 | 95 to 100 | 30 to 44 | 45 to 59 | 0 to 29 | 45 to 59 | 60 to 74 | 75 to 84 | pest or weed control at 70 g/ha [2, 13]: 0 to 29%; pest or weed control at 140 g/ha [2, 13]: 0 to 29%; pest or weed control at 70 g/ha [2, 14]: 30 to 44%; pest or weed control at 140 g/ha [2, 14]: 60 to 74%; pest or weed control at 70 g/ha [2, 15]: 0 to 29%; pest or weed control at 140 g/ha [2, 15]: 30 to 44%; pest or weed control at 70 g/ha [2, 16]: 0 to 29%; pest or weed control at 140 g/ha [2, 16]: 30 to 44%; pest or weed control at 70 g/ha [2, 17]: 85 to 94%; pest or weed control at 140 g/ha [2, 17]: 85 to 94%
2 | COc1c(-c2cc(N)c(Cl)c(C(=O)O)n2)ccc(Cl)c1F [Compound 84, 4-amino-3-chloro-6-(4-chloro-3-fluoro-2-methoxyphenyl)picolinic acid] | 95 to 100 | 95 to 100 | 95 to 100 | 95 to 100 | 95 to 100 | 95 to 100 | 95 to 100 | 95 to 100 | 0 to 29 | 0 to 29 | 85 to 94 | 85 to 94 | 95 to 100 | 95 to 100 | 0 to 29 | 0 to 29 | 0 to 29 | 0 to 29 | 0 to 29 | 0 to 29 | pest or weed control at 70 g/ha [2, 13]: 0 to 29%; pest or weed control at 140 g/ha [2, 13]: 0 to 29%; pest or weed control at 70 g/ha [2, 14]: 0 to 29%; pest or weed control at 140 g/ha [2, 14]: 0 to 29%; pest or weed control at 70 g/ha [2, 15]: 0 to 29%; pest or weed control at 140 g/ha [2, 15]: 0 to 29%; pest or weed control at 70 g/ha [2, 16]: 0 to 29%; pest or weed control at 140 g/ha [2, 16]: 0 to 29%; pest or weed control at 70 g/ha [2, 17]: 0 to 29%; pest or weed control at 140 g/ha [2, 17]: 0 to 29%
3 | C=Cc1c(-c2cc(N)c(Cl)c(C(=O)O)n2)ccc(Cl)c1F [Compound 89, 4-Amino-3-chloro-6-(4-chloro-3-fluoro-2-vinylphenyl)picolinic acid] | 85 to 94 | 95 to 100 | 95 to 100 | 95 to 100 | 95 to 100 | 95 to 100 | 95 to 100 | 95 to 100 | 30 to 44 | 45 to 59 | 95 to 100 | 95 to 100 | 45 to 59 | 60 to 74 | 0 to 29 | 0 to 29 | 30 to 44 | 75 to 84 | 75 to 84 | 85 to 94 | pest or weed control at 70 g/ha [2, 13]: 0 to 29%; pest or weed control at 140 g/ha [2, 13]: 0 to 29%; pest or weed control at 70 g/ha [2, 14]: 0 to 29%; pest or weed control at 140 g/ha [2, 14]: 0 to 29%; pest or weed control at 70 g/ha [2, 15]: 0 to 29%; pest or weed control at 140 g/ha [2, 15]: 0 to 29%; pest or weed control at 70 g/ha [2, 16]: 0 to 29%; pest or weed control at 140 g/ha [2, 16]: 0 to 29%; pest or weed control at 70 g/ha [2, 17]: 0 to 29%; pest or weed control at 140 g/ha [2, 17]: 0 to 29%
